Measurements reported in US20250346635A1, “VASCULAR ENDOTHELIAL GROWTH FACTOR RECEPTOR-1 (VEGFR-1) INHIBITORS FOR PROMOTING MYELINATION AND NEUROPROTECTION” (ICM (INSTITUT DU CERVEAU ET DE LA MOELLE ÉPINIÉRE), priority 2022, published 2025).

Experiments:
[1] = tested on: Purkinje cells; assay: Neuroprotection of Purkinje cells in organotypic cerebellar slices (CaBP immunostaining); format: cell-based; conditions: 10 days in vitro, slices from P0 mouse
Method: (§1) Organotypic cerebellar slices were generated from brains of postnatal day 0 (P0) and P7 mouse pups. Briefly, cerebella were dissected and cut into 350 μm slices. Cerebellar slices from the vermis were collected and then cultured on Millicell cell culture inserts (Millipore) in 6-wellplates in a medium composed of 50% Basal Medium Eagle, 25% Hank solution (HBSS), 25% inactivated horse serum, 5 mg/ml high-glucose, 1 mM L-glutamine, 0.2% penicillin-streptomycin. Slices were incubated at 37° C. (5% CO2) for 10 days (slices from P0) or 3 days (slices from P7). The culture medium was replaced every 2-3 days. For immunohistochemistry, slices were fixed in 4% paraformaldehyde and immunostained for CaBP and MBP. Briefly, slices were incubated in 4% BSA/0.2% triton for 1 hour and next incubated overnight with the following primary antibodies: rabbit anti-CaBP (dilution: 1/10000) and rat anti-MBP (dilution: 1/250). After several washes in PBS 0.1M, slices were then incubated with the secondary antibodies (anti-rabbit alexaFluor555, anti-mouse alexaFluor488) and Dapi for 2 hours and finally washed in PBS 0.1M and mounted in Fluoromount medium. Flurorescence imaging were performed with a confocal microscopy NIKON A1R-HD25.
The neuroprotective effects of the drugs were assessed by evaluating the density of Purkinje cells in basal medium alone and in basal medium supplemented with VEGFRs inhibitors. Organotypic cerebellar slices obtained from P0 mouse (as described above) were cultured for 10 days in vitro in basal medium alone, or in the basal medium supplemented either with pan-VEGFRs inhibitors, VEGFR-2/3 specific inhibitor (Telatinib) or with VEGFR-1 selective and specific inhibitors (SU14813 and ZM306416), respectively. All compounds were used at 500 nM, except ZM306416 that was used at 30 μM. After treatments, slices were immunostained for CaBP, as described above.

[2] = tested on: rat primary OPC cultures; assay: OPC differentiation in rat primary OPC cultures (MBP+Sox10+ cells); format: cell-based; conditions: 500 nM, 5 days in vitro
Method: Rat primary OPC cultures were obtained from neonatal pups (P0-P1). Brains were dissected, cerebellar cortices and meninges were removed. Brain tissues were next mechanically and enzymatically dissociated. After filtration and centrifugation, mixed cells of astrocytes, microglia and OPCs was cultured in DMEM medium on polyornithine-coated flasks. After 13-14 days of culture, microglial cells were removed by shaking during 2 h. OPCs were next collected after 18 h of shaking, followed by differential adhesion. OPCs purification was validated by immunostaining of Olig2 and Sox10. To induce differentiation, cells were kept in proliferation medium (DMEM-F12, 1% PS, FGF, PDGF, 1% laminin, Biotin, 2% B27, N1 mix) for 24 h and then switched to a differentiation medium with the same composition but deprived of FGF and PDGF. Cells were incubated at 37° C. (5% CO2) for 5 days and the medium was partially replaced every 2 days. Cells were then fixed in 2% paraformaldehyde and immunostained with Sox10 and MBP. Cells were incubated for 2 hours with primary antibodies Sox10 (Goat 1/100) and MBP (Rabbit 1/500) diluted in 4% BSA in PBS 0.1M/0.1% Triton. After washes, cells were then incubated with the secondary antibody (anti-Goat Alexa647, anti-Rabbit Alexa488 and Dapi) for 1 hour and finally washed in PBS 0.1M and mounted in Fluoromount medium. […]
Oligodendrocytes differentiation was assessed by analyzing the fold increase of MBP^+Sox10^+ cells in treated conditions relative to the basal condition. The percentage of MBP^+Sox10^+ cells were quantified after treatments with pan-VEGFRs and selective VEGFR-1 antagonists and compared with the basal medium. […] Myelination was assessed using organotypic cerebellar slices generated from P7 mice cerebellum and the effect of VEGFRs sub-types antagonists on myelination was analyzed after immunostaining for Sox10 for oligodendroglia, MBP for myelin (white) and calbindin (gray). […] The myelination index for each condition was quantified as the percentage of MBP+CaBP+ axons over the total CaBP+ axonal surface area and normalized relatively to basal condition.

[3] = tested on: organotypic cerebellar slices; assay: Myelination in organotypic cerebellar slices from P7 mice (MBP/CaBP); format: cell-based; conditions: 3 days ex vivo, slices from P7 mouse
Method: as §1
Oligodendrocytes differentiation was assessed by analyzing the fold increase of MBP^+Sox10^+ cells in treated conditions relative to the basal condition. The percentage of MBP^+Sox10^+ cells were quantified after treatments with pan-VEGFRs and selective VEGFR-1 antagonists and compared with the basal medium. Results are shown as differentiation fold increase relative to the basal condition. Myelination was assessed using organotypic cerebellar slices generated from P7 mice cerebellum and the effect of VEGFRs sub-types antagonists on myelination was analyzed after immunostaining for Sox10 for oligodendroglia, MBP for myelin (white) and calbindin (gray). Slices were cultured in basal medium (control condition), or in the basal medium supplemented either with 9cis-RA (used as a positive control of myelination) or with VEGFR-1 selective and specific inhibitor (SU14813 and ZM306416), respectively. All compounds were used at 500 nM, except ZM306416 that has been used at 30 μM. The myelination index for each condition was quantified as the percentage of MBP+CaBP+ axons over the total CaBP+ axonal surface area and normalized relatively to basal condition.

[4] = tested on: rat primary OPC cultures; assay: OPC differentiation (Olig2+MBP+ cells/Olig2+ cells) after VEGFR-1 shRNA or blocking peptide; format: cell-based; conditions: blocking peptide vs control (basal medium), 5 days in differentiation medium
Method: Rat primary OPC cultures were obtained from neonatal pups (P0-P1). Brains were dissected, cerebellar cortices and meninges were removed. Brain tissues were next mechanically and enzymatically dissociated. After filtration and centrifugation, mixed cells of astrocytes, microglia and OPCs was cultured in DMEM medium on polyornithine-coated flasks. After 13-14 days of culture, microglial cells were removed by shaking during 2 h. OPCs were next collected after 18 h of shaking, followed by differential adhesion. OPCs purification was validated by immunostaining of Olig2 and Sox10. To induce differentiation, cells were kept in proliferation medium (DMEM-F12, 1% PS, FGF, PDGF, 1% laminin, Biotin, 2% B27, N1 mix) for 24 h and then switched to a differentiation medium with the same composition but deprived of FGF and PDGF. Cells were incubated at 37° C. […]
For RT-qPCR, transduction at MOI 8 and MOI 2 were used. […] For immunocytochemistry, transfection with MOI 4 was used and labelling with Olig2 and MBP to quantify Olig2+MBP+ differentiated oligodendrocytes.
Our data confirmed efficient lentivirus transduction with multiplicity of infection 4 (MOI 4) and knock-down of VEGFR-1 (FIG. 5A). […] To do so, we quantified Olig2+MBP+ differentiated oligodendrocytes over the total Olig2+ oligodendroglial cells (ratio of Olig2+MBP+ cells/Olig2+ cells) for each condition.

[5] = tested on: organotypic cerebellar slices; assay: Myelination in organotypic cerebellar slices treated with VEGFR-1 blocking peptide; format: cell-based, mouse; conditions: 10 μM, from 5 to 10 days in vitro
Method: as §1
Mouse cerebellar slices were prepared as previously described. […]

**Q.** With `CNC(=O)c1cccc2cc(Oc3ccnc4cc(OCC5(N)CC5)c(OC)cc34)ccc12` [Lucitanib] as the molecule, how does the “neuroprotection / number of Purkinje cells relative to basal condition” value ([1]; 500 nM) read?
**A.** higher number of Purkinje cells with respect to the basal condition

**Q.** And the “number of SOX10+MBP+ differentiated oligodendrocytes relative to basal condition” value [2]?
**A.** significant increase

**Q.** And the “MBP+ mature oligodendrocytes in organotypic cerebellar slices” value (“MBP+ mature oligodendrocytes” for short) ([3]; 500 nM)?
**A.** numerous MBP^+ mature oligodendrocytes

**Q.** With GNQWFI [VEGFR-1-blocking peptide] as the molecule, how does the “fold increase in the number of Olig2+MBP+ cells” value [4] read?
**A.** 1.18±0.19 fold

**Q.** And the “ex-vivo myelination (MBP+CaBP+ myelinated axons)” value [5]?
**A.** enhances ex-vivo myelination

**Q.** With `CNC(=O)c1cc(COc2nnc(Nc3ccc(Cl)cc3)c3ccoc23)ccn1` [Telatinib] as the molecule, how does the “neuroprotection / number of Purkinje cells relative to basal condition” value ([1]; 500 nM) read?
**A.** but not of VEGFR-2/3 (Telatinib), enhance neuroprotection

**Q.** What about the “number of SOX10+MBP+ differentiated oligodendrocytes relative to basal condition” value [2] of the same molecule?
**A.** significant increase

**Q.** With `Cc1[nH]c(C=C2C(=O)Nc3ccc(F)cc32)c(C)c1C(=O)NC[C@H](O)CN1CCOCC1` [SU14813] as the molecule, how does the “neuroprotection / number of Purkinje cells relative to basal condition” value ([1]; 500 nM) read?
**A.** enhance neuroprotection of Purkinje cells

**Q.** And the “number of SOX10+MBP+ differentiated oligodendrocytes relative to basal condition” value [2]?
**A.** significant increase

**Q.** And the “MBP+ mature oligodendrocytes” value ([3]; 500 nM)?
**A.** numerous MBP^+ mature oligodendrocytes

**Q.** What about the “myelination index (density of myelinated axons) vs basal, 9 cis-RA, VEGFR-2/3 inhibitor and pan-VEGFR inhibitors” value ([3]; 500 nM) of the same molecule?
**A.** density of myelinated axons was higher

**Q.** `COc1cc2ncnc(Nc3ccc(Cl)cc3F)c2cc1OC` [ZM306416] was tested. Which “neuroprotection / number of Purkinje cells relative to basal condition” value ([1]; 30 μM) did it give?
**A.** enhance neuroprotection of Purkinje cells

**Q.** What about the “MBP+ mature oligodendrocytes” value ([3]; 30 μM) of the same molecule?
**A.** numerous MBP^+ mature oligodendrocytes

**Q.** What about the “myelination index (density of myelinated axons) vs basal, 9 cis-RA, VEGFR-2/3 inhibitor and pan-VEGFR inhibitors” value ([3]; 30 μM) of the same molecule?
**A.** density of myelinated axons was higher
